How the values were obtained:
Type in all cases: cell-based
[1] = test system: E. coli DH5α; assay: Antibacterial activity: MIC and growth curve against E. coli DH5α in 96-well plate; conditions: minimal inhibitory concentration against E. coli DH5α; 96-well plate, 5×10^5 CFU/mL, 37° C., judged after 8 h
In short: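 Log-phase bacteria (OD600 ~0.5) resuspended in LB at 5×10^5 CFU/mL, exposed to recombinant protein at 50, 25, 12.5 μg/mL final in triplicate, 37 °C shaking at 175 rpm. OD600 read every 30 min; MIC is lowest concentration showing no growth.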

[2] = test system: E. coli BL21; assay: MIC against Gram-negative bacteria: E. coli BL21
In short: (§1)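 Growth inhibition by human EGF domain proteins was scored in LB liquid culture seeded at 5×10^5 CFU/mL. Protein was applied as a two-fold dilution series in triplicate, with shaking incubation at 37° C; MIC is the lowest concentration giving no growth.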

[3] = test system: Pseudomonas aeruginosa; assay: MIC against Gram-negative bacteria: Pseudomonas aeruginosa
In short: as §1

[4] = test system: Klebsiella pneumonia; assay: MIC against Gram-negative bacteria: Klebsiella pneumonia
In short: as §1

[5] = test system: Enterobacter cloacae; assay: MIC against Gram-negative bacteria: Enterobacter cloacae
In short: as §1

[6] = test system: Aeromonas hydrophila; assay: MIC against Gram-negative bacteria: Aeromonas hydrophila
In short: as §1

[7] = test system: Citrobacter diversus; assay: MIC against Gram-negative bacteria: Citrobacter diversus
In short: as §1

[8] = test system: Moraxella catarrhalis; assay: MIC against Gram-negative bacteria: Moraxella catarrhalis
In short: as §1

[9] = test system: Proteus mirabilis; assay: MIC against Gram-negative bacteria: Proteus mirabilis
In short: as §1

[10] = test system: Proteus vulgaris; assay: MIC against Gram-negative bacteria: Proteus vulgaris
In short: as §1

[11] = test system: Serratia marcescens; assay: MIC against Gram-negative bacteria: Serratia marcescens
In short: as §1

[12] = 10 h cultivation at 37° C., 5×10^5 CFU/mL, two-fold serial dilution
[13] = 96-well plate, 5×10^5 CFU/mL, 37° C., 10 h

For “PRT145 (DVNECEIYSGTPLSCQNGGTCVNTMGSYSCHCPPETYGPQCA; listed as Homo sapiens)”, the MIC [1] was 12.5 µg/mL, the “MIC (μg/mL) E. coli BL21” value ([2]; E. coli BL21, 10 h cultivation at 37° C., 5×10^5 CFU/mL) was 12.5 µg/mL and the “MIC (μg/mL) P. aeruginosa” value ([3]; P. aeruginosa, 10 h cultivation at 37° C., 5×10^5 CFU/mL) was 12.5 µg/mL. The “MIC (μg/mL) K. pneumonia” value ([4]; K. pneumonia, 10 h cultivation at 37° C., 5×10^5 CFU/mL) was 12.5 µg/mL, the “MIC (μg/mL) E. cloacae” value ([5]; E. cloacae, 10 h cultivation at 37° C., 5×10^5 CFU/mL) was 12.5 µg/mL and the “MIC (μg/mL) A. hydrophila” value ([6]; A. hydrophila, 10 h cultivation at 37° C., 5×10^5 CFU/mL) was 12.5 µg/mL. The “MIC (μg/mL) C. diversus” value ([7]; C. diversus, 10 h cultivation at 37° C., 5×10^5 CFU/mL) was 12.5 µg/mL, the “MIC (μg/mL) M. catarrhalis” value ([8]; M. catarrhalis, 10 h cultivation at 37° C., 5×10^5 CFU/mL) was 12.5 µg/mL and the “MIC (μg/mL) P. mirabilis” value ([9]; P. mirabilis, 10 h cultivation at 37° C., 5×10^5 CFU/mL) was 25 µg/mL. For the same substance, the “MIC (μg/mL) P. vulgaris” value ([10]; P. vulgaris, 10 h cultivation at 37° C., 5×10^5 CFU/mL) was 12.5 µg/mL and the “MIC (μg/mL) S. marcescens” value ([11]; S. marcescens, 10 h cultivation at 37° C., 5×10^5 CFU/mL) was 25 µg/mL.

With “PRT1181 (KEAVCKQGCNLLHGGCTVPGECRCSYGWQGRFCD; listed as Homo sapiens)” the MIC [1] was 12.5 µg/mL, the “MIC E. coli BL21” value [2, 12] was 50 µg/mL and the “MIC P. aeruginosa” value [3, 12] was 12.5 µg/mL. The “MIC K. pneumonia” value [4, 12] was 50 µg/mL, the “MIC E. cloacae” value [5, 12] was 25 µg/mL and the “MIC A. hydrophila” value [6, 12] was 25 µg/mL. For the same substance, the “MIC C. diversus” value [7, 12] was 12.5 µg/mL, the “MIC M. catarrhalis” value [8, 12] was 50 µg/mL and the “MIC P. mirabilis” value [9, 12] was 100 µg/mL. For the same substance, the “MIC P. vulgaris” value [10, 12] was 50 µg/mL and the “MIC S. marcescens” value [11, 12] was 25 µg/mL.

“PRT705 (LDDSCKLTCENGGRCILNEKGDLRCHCWPSYSGE; listed as Homo sapiens)” was tested, and the MIC [1] was 25 µg/mL, the “MIC E. coli BL21” value [2, 13] was 50 µg/mL and the “MIC P. aeruginosa” value [3, 13] was 12.5 µg/mL. For the same substance, the “MIC K. pneumonia” value [4, 13] was 50 µg/mL, the “MIC E. cloacae” value [5, 13] was 12.5 µg/mL and the “MIC A. hydrophila” value [6, 13] was 25 µg/mL. The “MIC C. diversus” value [7, 13] was 100 µg/mL, the “MIC M. catarrhalis” value [8, 13] was 25 µg/mL and the “MIC P. mirabilis” value [9, 13] was 50 µg/mL. The “MIC P. vulgaris” value [10, 13] was 12.5 µg/mL and the “MIC S. marcescens” value [11, 13] was 50 µg/mL.

With “PRT1183 (NIDDCLGQPCRNGGTCIDEVDAFRCFCPSGWEGELCD; listed as Homo sapiens)” the MIC [1] was 25 µg/mL, the “MIC E. coli BL21” value [2, 12] was 50 µg/mL and the “MIC P. aeruginosa” value [3, 12] was 25 µg/mL. The “MIC K. pneumonia” value [4, 12] was 12.5 µg/mL, the “MIC E. cloacae” value [5, 12] was 50 µg/mL and the “MIC A. hydrophila” value [6, 12] was 25 µg/mL. For the same substance, the “MIC C. diversus” value [7, 12] was 12.5 µg/mL, the “MIC M. catarrhalis” value [8, 12] was 25 µg/mL and the “MIC P. mirabilis” value [9, 12] was 50 µg/mL. For the same substance, the “MIC P. vulgaris” value [10, 12] was 25 µg/mL and the “MIC S. marcescens” value [11, 12] was 12.5 µg/mL.

In the case of “PRT1400 (VCSVDCGTHGVCIGGACRCEEGWTGAACD; listed as Homo sapiens)”, the MIC [1] is reported as 50 µg/mL, the “MIC against E. coli BL21” value ([2]; E. coli BL21, 5×10^5 CFU/mL, 10 h cultivation at 37° C.) is reported as 12.5 µg/mL and the “MIC against P. aeruginosa” value ([3]; Pseudomonas aeruginosa, 5×10^5 CFU/mL, 10 h cultivation at 37° C.) is reported as 50 µg/mL. The “MIC against K. pneumonia” value ([4]; Klebsiella pneumonia, 5×10^5 CFU/mL, 10 h cultivation at 37° C.) was 12.5 µg/mL, the “MIC against E. cloacae” value ([5]; Enterobacter cloacae, 5×10^5 CFU/mL, 10 h cultivation at 37° C.) was 25 µg/mL and the “MIC against A. hydrophila” value ([6]; Aeromonas hydrophila, 5×10^5 CFU/mL, 10 h cultivation at 37° C.) was 50 µg/mL. For the same substance, the “MIC against C. diversus” value ([7]; Citrobacter diversus, 5×10^5 CFU/mL, 10 h cultivation at 37° C.) was 12.5 µg/mL, the “MIC against M. catarrhalis” value ([8]; Moraxella catarrhalis, 5×10^5 CFU/mL, 10 h cultivation at 37° C.) was 50 µg/mL and the “MIC against P. mirabilis” value ([9]; Proteus mirabilis, 5×10^5 CFU/mL, 10 h cultivation at 37° C.) was 12.5 µg/mL. The “MIC against P. vulgaris” value ([10]; Proteus vulgaris, 5×10^5 CFU/mL, 10 h cultivation at 37° C.) was 12.5 µg/mL and the “MIC against S. marcescens” value ([11]; Serratia marcescens, 5×10^5 CFU/mL, 10 h cultivation at 37° C.) was 25 µg/mL.

“PRT908 (LDNACLTNPCRNGGTCDLLTLTEYKCRCPPGWSGKSCQ; listed as Homo sapiens)” showed an MIC [1] of 50 µg/mL, an MIC ([2]; E. coli BL21, 10 h cultivation at 37° C.) of 12.5 µg/mL and an MIC ([3]; P. aeruginosa, 10 h cultivation at 37° C.) of 25 µg/mL. The MIC ([4]; K. pneumonia, 10 h cultivation at 37° C.) was 50 µg/mL, the MIC ([5]; E. cloacae, 10 h cultivation at 37° C.) was 100 µg/mL and the MIC ([6]; A. hydrophila, 10 h cultivation at 37° C.) was 25 µg/mL. For the same substance, the MIC ([7]; C. diversus, 10 h cultivation at 37° C.) was 50 µg/mL, the MIC ([8]; M. catarrhalis, 10 h cultivation at 37° C.) was 12.5 µg/mL and the MIC ([9]; P. mirabilis, 10 h cultivation at 37° C.) was 25 µg/mL. The MIC ([10]; P. vulgaris, 10 h cultivation at 37° C.) was 25 µg/mL and the MIC ([11]; S. marcescens, 10 h cultivation at 37° C.) was 25 µg/mL.

Reference: US9833497B2, “Human originated EGF domain proteins and use of the same” (CHENGDU SOURCEBIO LIMITED-LIABILITY COMPANY, priority 2013, dated 2017)
